Results on eight compounds are retold here after patent US20250255889A1, “METHODS FOR TREATMENT SELECTION FOR CHRONIC LYMPHOCYTIC LEUKEMIA (CLL)” (The Broad Institute, Inc., priority 2022, published 2025).

Molecules are shown by their SMILES.

The test system of this experiment is primary CLL samples (CD19+ and CD5+ cells). In words: High-throughput dynamic BH3 profiling (HT-DBP): drug-induced apoptotic priming (delta priming), cytochrome c release after BH3 peptide. Format: cell-based, human. The essentials:
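Primary CLL cells (CD19+/CD5+) are treated with the agent or DMSO carrier, then briefly exposed to a fixed concentration of a promiscuous BH3 peptide such as BIM. Mitochondrial cytochrome c release serves as the priming surrogate. Delta priming is drug-treated priming minus DMSO-treated priming, run in high-throughput format.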

Setting [1] is: peptide BAD 0.3 uM, feature IGLV321_R110.
[2] abbreviates: peptide BAD 0.3 uM, feature RPS15.
Setting [3] is: peptide BAD 0.3 uM, feature loss_6q.
Where [4] appears, read: peptide BAD 0.3 uM, feature priortrt_Post.
The mark [5] stands for this setting: peptide BIM 0.01 uM, feature BIRC3.
Setting [6] is: peptide BIM 0.01 uM, feature loss_9p21.3.
Setting [7] is: peptide BIM 0.01 uM, feature loss_17q11.2.
[8] abbreviates: peptide MS1 2.5 uM, feature EC-i.
The mark [9] stands for this setting: peptide MS1 2.5 uM, feature IGLV321_R110.
[10] abbreviates: peptide MS1 2.5 uM, feature RPS15.
The mark [11] stands for this setting: peptide MS1 2.5 uM, feature loss_6q.
Setting [12] is: peptide PUMA 1 uM, feature priortrt_Post.
Setting [13] is: peptide PUMA 1 uM, feature BIRC3.
Where [14] appears, read: peptide PUMA 1 uM, feature loss_1q21.3.
Where [15] appears, read: peptide PUMA 1 uM, feature loss_7p22.2.
The mark [16] stands for this setting: peptide PUMA 1 uM, feature loss_9p21.3.
The mark [17] stands for this setting: peptide PUMA 1 uM, feature loss_17q11.2.
The mark [18] stands for this setting: peptide BAD 0.3 uM, feature M-CLL.
The mark [19] stands for this setting: peptide BAD 0.3 uM, feature U-CLL.
Setting [20] is: peptide MS1 2.5 uM, feature EC-m4.
The mark [21] stands for this setting: peptide PUMA 1 uM, feature FBXW7.
Where [22] appears, read: peptide BIM 0.01 uM, feature loss_15q15.1b.
Setting [23] is: peptide BIM 0.01 uM, feature loss_20p11.22.
Where [24] appears, read: peptide PUMA 1 uM, feature loss_3p21.31.
Where [25] appears, read: peptide MS1 2.5 uM, feature m-CLL.

As for `NC1(c2ccc(-c3nc4ccn5c(=O)[nH]nc5c4cc3-c3ccccc3)cc2)CCC1` [MK-2206], the direction entry is on record as “Resistant” (Feature priortrt_Post); “Resistant” (peptide BAD 0.3 uM, feature EC-i); “Resistant” under setting [1]; “Resistant” under setting [2]; “Resistant” under setting [3]; “Resistant” under setting [4]. In addition, the direction result is reported as “Sensitive” under setting [5]; “Sensitive” (peptide BIM 0.01 uM, feature ITIH2); “Sensitive” under setting [6]; “Sensitive” under setting [7]; “Resistant” under setting [8]; “Resistant” under setting [9]. Also, the direction entry reads like this: under setting [10], “Resistant”; under setting [11], “Resistant”; under setting [12], “Resistant”.
For `CCC[C@H](N[C@H]1CCc2cc(F)cc(F)c2C1)C(=O)Nc1cn(C(C)(C)CNCC(C)(C)C)cn1` [Nirogacestat], the direction entry reads like this: (peptide BAD 0.3 uM, feature loss_1p36.11) “Resistant”; (peptide BAD 0.3 uM, feature loss_3p13) “Resistant”; (peptide BAD 0.3 uM, feature loss_18q21.2) “Resistant”; (peptide BIM 0.01 uM, feature EC-m2) “Sensitive”; (peptide BIM 0.01 uM, feature tri_12) “Sensitive”; under setting [13], “Sensitive”. Moreover, the direction entry is “Sensitive” under setting [14], “Sensitive” under setting [15], “Sensitive” under setting [16] and “Sensitive” under setting [17].
As to `COc1ccc(C2=N[C@@H](c3ccc(Cl)cc3)[C@@H](c3ccc(Cl)cc3)N2C(=O)N2CCNC(=O)C2)c(OC(C)C)c1` [Nutlin-3], the “drug-induced apoptotic priming by expression cluster” value (EC-m1) is recorded as “most sensitive”. Moreover, the direction result reads like this: (Feature FBXW7) “Resistant”; (Feature priortrt_Post) “Resistant”; under setting [18], “Sensitive”; under setting [19], “Resistant”; under setting [4], “Resistant”; under setting [20], “Sensitive”. For the same compound, the direction entry reads like this: (peptide PUMA 1 uM, feature EC-m4) “Sensitive”; under setting [21], “Resistant”; (peptide PUMA 1 uM, feature loss_17p13.1) “Resistant”; under setting [12], “Resistant”. The drug-induced apoptotic priming entry (across CLL subtypes, 65 primary CLL samples, 20 hours drug) was “high priming”. The dprim_pearson_corr under setting [18] was 0.4093, the dprim_pearson_corr under setting [19] is reported as −0.4093, the dprim_pearson_corr under setting [4] is listed as −0.4166 and the dprim_pearson_corr under setting [20] turned out to be 0.3373.
In the case of `CC(C)c1cc(C(=O)N2Cc3ccc(CN4CCN(C)CC4)cc3C2)c(O)cc1O` [Onalespib], the direction entry (peptide BAD 0.3 uM, feature loss_1q42.13) is “Sensitive”; the direction result (peptide BAD 0.3 uM, feature loss_13q14.13) is on record as “Sensitive”; the direction entry (peptide BAD 0.3 uM, feature loss_16p11.2) is recorded as “Sensitive”; the direction entry under setting [22] is “Resistant”; the direction entry under setting [23] is recorded as “Resistant”; the direction result (peptide MS1 2.5 uM, feature loss_19p13.11) was “Sensitive”. Also, for the setting “peptide PUMA 1 uM, feature loss_6q21”, the direction result is reported as “Resistant”.
`C=CC(=O)Nc1cc(Nc2nccc(-c3cn(C)c4ccccc34)n2)c(OC)cc1N(C)CCN(C)C` [Osimertinib]: the direction entry under setting [1] is reported as “Resistant”; the direction entry (peptide BAD 0.3 uM, feature MYD88) is listed as “Resistant”; the direction result (peptide BAD 0.3 uM, feature NOTCH1) is listed as “Resistant”; the direction result under setting [2] is “Resistant”; the direction result under setting [3] is listed as “Resistant”; the direction entry under setting [5] is listed as “Sensitive”. Further, the direction result is reported as “Sensitive” (peptide BIM 0.01 uM, feature EC-u2); “Resistant” (peptide BIM 0.01 uM, feature IGLV321_R110); “Resistant” (peptide BIM 0.01 uM, feature NOTCH1); “Resistant” (peptide BIM 0.01 uM, feature RPS15); “Resistant” (peptide BIM 0.01 uM, feature loss_6q); “Sensitive” under setting [6]. Moreover, the direction result is “Sensitive” under setting [7]; “Resistant” under setting [8]; “Resistant” under setting [9]; “Resistant” (peptide MS1 2.5 uM, feature NOTCH1); “Resistant” under setting [10]; “Resistant” under setting [11]. The direction result under setting [13] is “Sensitive”; the direction result (peptide PUMA 1 uM, feature MYD88) was “Resistant”; the direction entry under setting [24] is on record as “Resistant”; the direction result under setting [16] is listed as “Sensitive”; the direction result under setting [17] was “Sensitive”.
In the case of `O=C(CCCCCCNC(=O)c1cnc(N(c2ccccc2)c2ccccc2)nc1)NO` [Ricolinostat], the direction result is “Sensitive” (peptide BAD 0.3 uM, feature CARD11); “Resistant” (peptide BIM 0.01 uM, feature i-CLL); “Resistant” under setting [22]; “Resistant” under setting [23]; “Sensitive” (peptide MS1 2.5 uM, feature CNOT3); “Resistant” (peptide MS1 2.5 uM, feature loss_10q24.32). The direction result reads like this: under setting [25], “Sensitive”; (peptide PUMA 1 uM, feature CARD11) “Sensitive”; (peptide PUMA 1 uM, feature gain_16p11.2) “Resistant”; (peptide PUMA 1 uM, feature i-CLL) “Resistant”; under setting [14], “Resistant”; (peptide PUMA 1 uM, feature loss_2q31.1) “Resistant”. Moreover, the direction result under setting [24] is reported as “Resistant”; the direction result (peptide PUMA 1 uM, feature loss_5p15.33) is “Resistant”; the direction result under setting [15] is “Resistant”; the direction entry (peptide PUMA 1 uM, feature loss_10p12.2) was “Resistant”; the direction entry (peptide PUMA 1 uM, feature loss_12p13.31a) is on record as “Resistant”; the direction entry (peptide PUMA 1 uM, feature loss_14q32.12) was “Resistant”. Besides, the direction entry (peptide PUMA 1 uM, feature loss_15q15.1b) is on record as “Resistant”; the direction result (peptide PUMA 1 uM, feature loss_16q22.1) was “Resistant”; the direction result (peptide PUMA 1 uM, feature loss_17p13.3) was “Resistant”; the direction result (peptide PUMA 1 uM, feature loss_20p11.22) is listed as “Resistant”; the direction entry (peptide PUMA 1 uM, feature m-CLL) is given as “Sensitive”.
On to `O=C(/C=C\n1cnc(-c2cc(C(F)(F)F)cc(C(F)(F)F)c2)n1)NNc1cnccn1` [Selinexor], for which the direction result is “Sensitive” (Feature MYD88); “Sensitive” (peptide BAD 0.3 uM, feature ITIH2); “Sensitive” (peptide BIM 0.01 uM, feature MYD88); “Sensitive” (peptide PUMA 1 uM, feature loss_7q36.1); “Sensitive” (peptide PUMA 1 uM, feature loss_8p).
As to `CNC(=O)c1cc(Oc2ccc(NC(=O)Nc3ccc(Cl)c(C(F)(F)F)c3)cc2)ccn1` [Sorafenib], the direction result is recorded as “Sensitive” (peptide BAD 0.3 uM, feature GNB1); “Sensitive” (peptide BAD 0.3 uM, feature RFX7); “Sensitive” (peptide BAD 0.3 uM, feature ZMYM3); “Resistant” (peptide BAD 0.3 uM, feature i-CLL); “Resistant” (peptide BIM 0.01 uM, feature FBXW7); “Sensitive” (peptide BIM 0.01 uM, feature GNB1). In addition, the direction result is on record as “Resistant” (peptide BIM 0.01 uM, feature RFX7); “Resistant” (peptide BIM 0.01 uM, feature ZMYM3); “Resistant” (peptide BIM 0.01 uM, feature gain_19p13.3); “Resistant” (peptide BIM 0.01 uM, feature loss_2q31.1); “Resistant” (peptide BIM 0.01 uM, feature loss_10p12.2); “Resistant” (peptide MS1 2.5 uM, feature RFX7). Also, the direction result by setting is: (peptide MS1 2.5 uM, feature ZMYM3) “Resistant”; (peptide MS1 2.5 uM, feature gain_19p13.3) “Resistant”; (peptide MS1 2.5 uM, feature loss_2q31.1) “Resistant”; (peptide MS1 2.5 uM, feature loss_10p12.2) “Resistant”; (peptide MS1 2.5 uM, feature loss_10q24.2) “Resistant”; (peptide MS1 2.5 uM, feature loss_11q22.3) “Resistant”. The direction result runs as follows: under setting [25], “Sensitive”; (peptide MS1 2.5 uM, feature priortrt_Post) “Resistant”; under setting [21], “Resistant”; (peptide PUMA 1 uM, feature RFX7) “Resistant”; (peptide PUMA 1 uM, feature ZMYM3) “Resistant”.
